Test results published in US7390822B2, “Substituted 4-phenyl-4-[1H-imidazol-2-yl]-piperidine derivatives for reducing ischaemic damage” (Janssen Pharmaceutica, N.V., priority 2001, dated 2008).
Where “and” joins values, the source holds several entries; their conditions need not be identical. Identical values can stand only once.

Key:
[1] = system: rat heart; assay: Rat-Langendorff model (isolated perfused heart, ischaemia/reperfusion); conditions: individual rat hearts; for EDP: Degree of normalisation of EDP during reperfusion (amount above baseline EDP): 0 = recuperation to baseline EDP; for IC: Ischemic contracture: 4 μg/500 ml buffer, 20 min ischaemia; for Vfib: Number of ventricullar fibrillations during reperfusion: 40 min reperfusion
Procedure: A rat heart is rapidly dissected, attached by the aorta to a cannula and perfused with a physiological buffer (modified Krebs-Henseleit buffer: NaCl 118 mmol/l, KCl 4.7 mmol/l, MgSO4 1.2 mmol/l, KH2PO4 1.2 mmol/l, CaCl2 1.8 mmol/l, NaHCO3 23 mmol/l, glucose 11 mmol/l) without blood under 80 mmHg perfusion pressure. Oxygen is dissolved in the physiological buffer. The heart is paced atrially at 350 beats per minute. A balloon that can be optionally filled (adjustment preload) is inserted into the left ventricle. Diastolic pressure and the pressure developped are measured as well as the maximal rate of pressure development as a measure of contractility (inotropism) and the minimal rate of pressure decay as a measure of relaxation. Advantages of this model are: the heart is isolated and studied in controlled circumstances without interaction with other organs and the method is reasonably rapid and cheap. Disadvantages are: no blood perfusion, with only dissolved oxygen, therefore greater coronary flow rates with considerable vasodilatation of the coronary system; a closed system without metabolism and without interaction with other organs and a small animal model, relatively far away from clinical reality.
The study period of ischaemia is 20 minutes. The measurements after the study period of ischaemia (reperfusion phase) always last 40 minutes. Measurements before the study period of ischaemia last 30 minutes and are performed after stabilization. In the ischaemic preconditioning group the following is measured during these 30 minutes: 10 minutes baseline, 5 minutes ischaemia, 5 minutes reperfusion, 5 minutes ischaemia and 5 minutes reperfusion. In the group of the compounds according to the invention (4 μg/500 ml buffer solution) there is first 15 minutes baseline followed by 15 minutes treatment. Consequently, everything is time-matched.

[2] = system: sheep heart (left ventricle); assay: Sheep model (normothermic myocardial ischaemia during extra corporal circulation); type: in vivo
Procedure: The model is a sheep anaesthetized with ketamine and isoflurane. The extra corporal circulation is connected by venous cannulation of both caval veins and arterial cannulation via the carotid. An additional cannula with flow meter in the right ventricle gives the flow rate over the coronary arteries. In addition to measurements of heart rate and arterial blood pressure, the left ventricle instantaneous pressure is measured as well as the left ventricle volumes via a conductance catheter. There is also a side-tubing on the arterial cannula of the artificial heart leading to the pulmonary artery. Via this route it is possible to modulate the left ventricle preload in a perfectly controlled manner in order to obtain load-independent measurements of the left ventricle contractility before and after the study period of ischaemia. Cardiac oxygen consumption was also measured as well as regional perfusion with the aid of coloured microspheres.
The study period of ischaemia was 30 minutes while the heart remained normothermic and was fully unloaded by the extra corporal circulation and venting of the ventricles. The control group was time-matched with the other groups. The ischaemic preconditioning group was subjected to 3 times 5 minutes of preconditioning ischaemia with 5 minute reperfusion intervals. In the three groups extra corporal circulation was started 30 minutes before the study period of ischaemia was imposed. The extra corporal circulation was stopped 40 minutes after the end of the study period of ischaemia. […] Only these four will be processed here. In the other groups, 7 experiments are always processed. Before each measurement of pressure-volume ratios in the left ventricle the system was switched to the right heart bypass model in which the venous flow is diverted into the extra corporal circulation via the caval veins and the blood is returned to the sheep via the pulmonary artery.

[3] = molecular target: cloned human μ opioid receptor (Homo sapiens, UniProt P35372); assay: Radioligand binding, competition with [3H]DAMGO; conditions: read-out: Agonist receptor binding (pIC50) mu (converted)
Chain of cloned human μ opioid receptor (P35372 whole entry): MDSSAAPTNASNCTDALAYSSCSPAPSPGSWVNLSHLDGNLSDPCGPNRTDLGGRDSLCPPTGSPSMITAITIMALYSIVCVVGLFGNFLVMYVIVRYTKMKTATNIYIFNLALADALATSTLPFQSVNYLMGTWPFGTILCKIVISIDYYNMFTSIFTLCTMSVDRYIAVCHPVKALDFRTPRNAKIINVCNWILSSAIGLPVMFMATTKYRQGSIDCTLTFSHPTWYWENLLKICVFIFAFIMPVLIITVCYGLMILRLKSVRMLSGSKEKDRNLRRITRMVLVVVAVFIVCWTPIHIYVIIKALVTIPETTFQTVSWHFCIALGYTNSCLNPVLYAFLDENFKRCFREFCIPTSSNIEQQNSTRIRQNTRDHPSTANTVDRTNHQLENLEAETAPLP

CCOC(=O)N1CCC(c2ccccc2)(c2nccn2Cc2ccccc2)CC1 [Compound 1, ethyl 4-phenyl-4-[1-(phenylmethyl)-1H-imidazol-2-yl]-1-piperidinecarboxylate]
Recup: % recuperation in developed pressure at the end of reperfusion [1]: 92% and 85% and 82%
EDP: Degree of normalisation of EDP during reperfusion (amount above baseline EDP) [1]: 0 mmHg and +7 mmHg and +8 mmHg
IC: Ischemic contracture [1]: 4 mmHg and 6 mmHg and 8 mmHg
Vfib: Number of ventricullar fibrillations during reperfusion [1]: 0 (2×) and 1 (short)
Tau (ventricular relaxation) ([2]; compared to control group 70 and 100 minutes after end of ischaemia): significantly lower
Preload recruitable stroke work (PRSW) ([2]; compared to control group after 70 and 100 minutes of reperfusion): significantly better
Cardiac flow after reperfusion ([2]; compared to control group, no significant difference): tendency for cardiac flow to be higher
Contractile efficacy (O2-consumption converted into PVA) ([2]; control group 32.8%, ischaemic preconditioning group 44.5%, p<0.001): 46.7%

O=C(c1ccccc1)N1CCC(c2ccccc2)(c2nccn2Cc2ccccc2)CC1 [Compound 2]
melting point: 122.7 °C

CCOC(=O)N1CCC(c2ccccc2)(c2nccn2Cc2ccc(C(=O)OC)cc2)CC1 [Compound 3]
melting point: 149.1 °C

CCN/C(=N/C#N)N1CCC(c2ccccc2)(c2nccn2Cc2ccccc2)CC1 [Compound 4]
melting point: 84.2 °C

CCOC(=O)N1CCC(c2ccccc2)(c2nccn2Cc2ccc(C(=O)O)cc2)CC1 [Compound 8]
melting point: 251.6 °C

CCCOC(=O)N1CCC(c2ccccc2)(c2nccn2Cc2ccccc2)CC1 [Compound 24]
Recup: % recuperation in developed pressure at the end of reperfusion [1]: 91% and 85% and 87%
EDP: Degree of normalisation of EDP during reperfusion (amount above baseline EDP) [1]: 0 mmHg and +5 mmHg and +7 mmHg
IC: Ischemic contracture [1]: 10 mmHg and 5 mmHg and 7 mmHg
Vfib: Number of ventricullar fibrillations during reperfusion [1]: 0 (2×) and 1 (short)

CC(C)OC(=O)N1CCC(c2ccccc2)(c2nccn2Cc2ccccc2)CC1 [Compound 25]
Recup: % recuperation in developed pressure at the end of reperfusion [1]: 79% and 85% and 75%
EDP: Degree of normalisation of EDP during reperfusion (amount above baseline EDP) [1]: +6 mmHg (2×) and +10 mmHg
IC: Ischemic contracture [1]: 5 mmHg and 7 mmHg (2×)
Vfib: Number of ventricullar fibrillations during reperfusion [1]: 0 and 1 (short) and 2 (short)

COC(=O)c1ccc(Cn2ccnc2C2(c3ccccc3)CCN(c3nc4ccccc4o3)CC2)cc1 [Compound 102]
IC50 [3]: > 1000 nM
